In patent publication US20090312414A1, “Treatment Of Lower Urinary Tract Dysfunction With CB2-Receptor-Selective Agonists” (priority 2008, published 2009):

Columns and labels:
[1] = test system: conscious rats treated with cyclophosphamide; test: Cystometry in cyclophosphamide-induced model of IC/PBS; type: in vivo, rat; conditions: 10 mg/kg IP; for Bladder capacity (BC): CYP-treated rats
Source text: This study involved the determination of the acute effect of the compound of Formula I on bladder function in conscious rats in the cyclophosphamide-induced model of interstitial cystitis/painful bladder syndrome (“IC/PBS”) using cystometry. The clinical use of cyclophosphamide (“CYP”), a chemotherapy drug that is given as a treatment for many types of cancer, can cause inflammation of the bladder lining, inducing acute hemorrhagic cystitis or chronic cystitis, and result in side effects in the bladder that can be seen in patients with IC/PBS. (Levine L A, Richie J P. Urological complications of cyclophosphamide. J Urol. 1989; 141:1063; Stillwell T J, Benson R C. Cyclophosphamide-induced cystitis. A review of 100 patients. Cancer. 1988; 61:451). The cystitis is not caused by CYP itself, but to acrolein, a toxic CYP metabolite produced by microsomal metabolism that is eliminated by the bladder (Levine L A, Richie J P. Urological complications of cyclophosphamide. J Urol. 1989; 141:1063). In rats, IP administration of CYP induces bladder inflammation and disrupts the urothelial lining, increasing afferent nerve sensitivity and leading to bladder overactivity. Bladder weight is increased due to the inflammation, and bladder capacity is decreased (Corrow K A, Vizzard M A. Phosphorylation of extracellular signal-regulated kinases in urinary bladder in rats with cyclophosphamide-induced cystitis. Am J Physiol. 2007; 293:R125; Lecci A, Birder L A, Meini S, Catalioto R-M, Tramontana M, Giuliani S, Criscuoli M, Maggi C A. Pharmacological evaluation of the role of cyclooxygenase isoenzymes on the micturition reflex following experimental cystitis in rats. Br J Pharmacol. 2000; 130:331).
Male Sprague Dawley rats, weighing 250 g, were maintained under standard laboratory conditions with a 12:12 light/dark cycle and free access to food pellets and water. For surgical procedures, the rats were anesthetized with IP administration of Equinthensin solution (3 ml/kg).
The bladder was exposed via a mid-line incision of the lower abdomen, and the bladder was freed from adhering tissues and emptied. A saline-filled polyethylene catheter (0.58 mm ID and 0.96 mm OD) was implanted in the bladder via an incision at the bladder dome and sutured in place with silk thread. For IV compound administration, a similar PE catheter filled with saline containing sodium heparin (40 IU/ml) was inserted into a jugular vein. The cannulas were exteriorized through a subcutaneous tunnel in the retroscapular area and are connected with a plastic adaptor in order to avoid removal by the animal. […]
Bladder capacity (“BC”) and micturition pressure (“MP”) were the urodynamic parameters evaluated from the cystometrogram. […]

CB1 receptor = CB1 receptor (Homo sapiens, UniProt P21554); test: biochemical; type: binding; conditions: displaces 50% of a radiolabeled agonist
Sequence of CB1 receptor (P21554 whole entry): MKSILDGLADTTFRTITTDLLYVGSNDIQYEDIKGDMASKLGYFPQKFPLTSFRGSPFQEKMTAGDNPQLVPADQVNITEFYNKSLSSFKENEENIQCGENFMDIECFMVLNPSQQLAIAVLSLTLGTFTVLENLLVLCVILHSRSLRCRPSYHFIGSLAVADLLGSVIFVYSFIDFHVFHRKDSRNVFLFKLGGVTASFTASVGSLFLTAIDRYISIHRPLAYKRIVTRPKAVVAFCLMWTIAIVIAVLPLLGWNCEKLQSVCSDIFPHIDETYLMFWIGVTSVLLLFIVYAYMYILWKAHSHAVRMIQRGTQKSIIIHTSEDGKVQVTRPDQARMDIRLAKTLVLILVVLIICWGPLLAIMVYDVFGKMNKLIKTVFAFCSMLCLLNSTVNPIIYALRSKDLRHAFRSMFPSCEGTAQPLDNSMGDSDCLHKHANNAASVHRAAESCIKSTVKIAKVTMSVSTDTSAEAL

CCCCCCC(C)(C)c1cc(O)c([C@H]2CC(=O)[C@H]3C[C@@H]2C3(C)C)c(OC(=O)/C=C/C(=O)O)c1 [Formula I]
Reduction of BC compared to pre-CYP treatment levels ([1]; 26 hr time point): 29% | Reduction of BC compared to pre-CYP treatment levels ([1]; 28 hr time point): 21% | Bladder capacity (BC) ([1]; 2 hr post treatment (26 hr time point)): 0.57 ± 0.06 mL | Bladder capacity (BC) ([1]; 4 h after administration (28 hr time point)): 0.63 ± 0.09 mL | IC50 (CB1 receptor): 660 nM
